Columns and labels:
[1] = tested on: primary human T-ALL tumor cells; experiment: Primary T-ALL cell viability on MS5-DL1 stroma; assay type: cell-based; settings: selective blockade of PI3Kδ
Experimental: (§1) Cell proliferation of CCRF-CEM cells or shRNA transfected CCRF-CEM cells, in the presence or absence of appropriate drug, was followed by cell counting of samples in triplicate using a hemocytometer and trypan blue. For apoptosis determinations of untransfected or shRNA transfected CCRF-CEMs, cells were stained with APC-conjugated Annexin-V (BD Biosciences) in Annexin Binding Buffer (Miltyeni Biotec) and analyzed by flow cytometry. For primary T-ALL samples, cell viability was assessed using the BD Cell Viability kit (BD Biosciences) coupled with the use of fluorescent counting beads as previously described (Armstrong et al., 2009). For this, cells were plated with MS5-DL1 stroma cells, and after 72 hours following drug treatment cells were harvested and stained with an APC-conjugated anti-human CD45 followed by a staining with the above kit according to the manufacturer's instructions.

CCRF-CEM cells = experiment: Cell proliferation and apoptosis (cell counting, Annexin V); assay type: cell-based, human
Experimental: as §1

Akt/PKB phosphorylation = experiment: TCR-induced Akt/PKB phosphorylation in thymocytes (Western blot); assay type: cell-based, mouse; settings: p110γ−/− thymocytes; IC87114 10 μM
Experimental: Cell lysates (from cell lines or thymocytes) were prepared on ice in M-PER Mammalian Protein Extraction reagent (Pierce) containing a cocktail of protease and phosphatase inhibitors (Swat et al., 2006). Equal amounts of total protein from lysates were subjected to SDS-PAGE, transferred to PVDF membrane (Immobilon-P, Millipore), and membranes probed by overnight incubation with appropriate primary antibodies. Bound antibodies were visualized with HRP-conjugated secondary antibodies and ECL chemistry (SuperPico West, Pierce).
To assess the requirement for p110δ in TCR-induced phosphorylation of Akt/PBK, single-cell suspensions of thymocytes (1×10^8/mL) from PI3Kγ-deficient animals were incubated with the p110δ-specific inhibitor IC87114 (10 μM) or with vehicle control (DMSO) for 30 minutes before TCR cross-linking, as described for the Ca^2+ flux assay. Aliquots (100 μL) were collected at 0, 10, 30, and 60 minutes after TCR cross-linking, briefly centrifuged to pellet, and subsequently lysed with ice-cold M-Per (Pierce, Rockford, IL) (according to the manufacturer's recommendations) that contained a cocktail of phosphatase and protease inhibitors (Puri et al., 2005). Lysates were clarified by centrifugation (12,000 g for 15 minutes at 4° C.), and total and phosphorylated Akt/PBK were determined by Western blot analysis.

CD4+CD8+ DP thymocytes = experiment: Fetal thymus organ culture, flow cytometry; assay type: cell-based, mouse; settings: IC87114 10 μM, 1 week
Description: Thymus lobes were obtained from mouse embryos, with embryonic day 0 (EO) considered the day of vaginal plug detection. Fetal thymus organ cultures were used to compare the effects of pharmacologic blockade of p110δ activity on thymocyte development in WT, p110δ^−/−, and p110γ^−/− mice. Briefly, 3 to 4 intact thymi were placed on bare filter inserts (transwell, 3-μm pore size; Corning Costar, Cambridge, MA) and then were inserted into wells containing DMEM, 10% FCS supplemented with either p110δ-specific inhibitor IC87114 (10 μM) or vehicle control (DMSO), and incubated for 1 week at 37° C. in 5% CO2. Thymocyte differentiation was evaluated by flow cytometry.

[2] = CCRF-CEM with p110γ shRNA knockdown, IC87114 10 μM

SMILES: Cc1ccccc1-n1c(Cn2cnc3c(N)ncnc32)nc2cccc(C)c2c1=O [IC87114, reference compound]
- viability of primary human T-ALL samples [1]: ineffective
- proliferation and apoptosis (CCRF-CEM cells; CCRF-CEM containing empty vector alone, IC87114): no major effect
- apoptosis (CCRF-CEM cells; [2]): promoted apoptosis
- proliferation (CCRF-CEM cells; [2]): prevented proliferation
- phosphorylated form of Akt/PKB after TCR cross-linking (Akt/PKB phosphorylation): not detected
- reduction in the population of CD4+CD8+ DP thymocytes (CD4+CD8+ DP thymocytes; p110γ−/− day 14.5 fetal thymi, mean±SE): 69.2%±2.7%
- decrease in DP cells (CD4+CD8+ DP thymocytes; p110δ−/− or WT control fetal thymi): ≤ 10%

From patent US11969428B2, “Methods and pharmaceutical compositions for treating lymphoid malignancy” (priority 2011, dated 2024)
